Measured values published in US20020156094A1, “Sulfonamide interleukin-1beta converting enzyme inhibitors” (Warner-Lambert Company, priority 1996, published 2002).
Where “and” joins values, the source holds several entries; their conditions need not be identical. Identical values can stand only once.

Experiments:
Format in all cases: biochemical
[1] = target: T1, ICE (interleukin-1β converting enzyme, Caspase-1) (Homo sapiens, UniProt P29466); assay: ICE Ki fluorescence assay (Ac-Tyr-Val-Ala-Asp-AMC hydrolysis); conditions: ICE 0.24 nM, 15 μM Ac-Tyr-Val-Ala-Asp-AMC, reversible competitive model
T1 sequence (P29466 120-297 limits assumed): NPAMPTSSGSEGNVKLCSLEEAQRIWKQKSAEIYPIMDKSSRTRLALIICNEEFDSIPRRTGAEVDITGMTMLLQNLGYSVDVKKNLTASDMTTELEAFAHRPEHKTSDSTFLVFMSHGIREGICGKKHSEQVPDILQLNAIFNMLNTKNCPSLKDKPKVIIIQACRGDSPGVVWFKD
T1 sequence (P29466 317-404 limits assumed): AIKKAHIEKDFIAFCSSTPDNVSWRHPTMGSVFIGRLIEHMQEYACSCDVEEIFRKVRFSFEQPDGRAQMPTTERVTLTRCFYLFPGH
Protocol: Substrate hydrolysis is monitored for 300 seconds by observing the fluorescence of released AMC using excitation at 380 nm and emission at 460 nm. Mean rates of substrate hydrolysis are evaluated by linear-regression analysis of the fluorescence vs time traces. To evaluate Ki, plots of percent inhibition vs inhibitor concentration are fit by non-linear regression to a reversible, competitive model: [formula]
Where the competition factor (1+[S]/KM)=2.

[2] = target: T1, ICE (interleukin-1β converting enzyme, Caspase-1); assay: ICE Colorimetric Dose-Response (IC50) Assay; conditions: ICE approx. 24 nM, 60 min preincubation, 50 μM Ac-Tyr-Val-Ala-Asp-pNA, 25° C.
Protocol: ICE Colorimetric Dose-Response (IC50) Assay
(§1) Diluted inhibitor stocks are prepared by two-fold serial dilution from a primary stock whose concentration is selected (based on screening results or on prior attempts at IC50 evaluation) to achieve approximately 95% inhibition in the most concentrated well. Aliquots of each dilution are transferred to a microtitre plate in triplicate.
(§2) ICE enzyme is diluted to approximately 24 nM in HGE buffer (100 mM HEPES pH 7.5, 0.5 mM EDTA, 20% glycerol, 0.1% Bovine Serum Albumin (BSA)), and activated by adding dithiothreitol (DTT) to a final concentration of 5 mM. The activated enzyme is then aliquoted into wells containing inhibitor or vehicle, and the plate is preincubated for 60 minutes at ambient temperature. Substrate (Ac-Tyr-Val-Ala-Asp-pNA) is added to each well to a final concentration of 50 μM, and plates are placed in the microtitre plate-reader thermostated to 25° C. Beginning 5 minutes after addition of substrate, absorbance (405 nm) of wells is monitored for 1 hour, and activity is calculated as the mean rate of change in absorbance during this interval.

Ich-2 (Caspase-4) = target: T2, Ich-2 (Caspase-4) (Homo sapiens, UniProt P49662); assay: Ich-2 (Caspase-4) Colorimetric Dose-Response (IC50) Assay; conditions: enzyme 64 nM, substrate Ac-Leu-Glu-Val-Asp-pNA
T2 sequence (P49662 81-270 limits assumed): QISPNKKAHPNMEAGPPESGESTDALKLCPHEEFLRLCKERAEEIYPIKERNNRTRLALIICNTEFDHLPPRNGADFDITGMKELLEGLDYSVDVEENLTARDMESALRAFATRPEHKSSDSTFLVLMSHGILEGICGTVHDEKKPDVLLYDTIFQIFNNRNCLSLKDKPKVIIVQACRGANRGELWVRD
T2 sequence (P49662 290-377 limits assumed): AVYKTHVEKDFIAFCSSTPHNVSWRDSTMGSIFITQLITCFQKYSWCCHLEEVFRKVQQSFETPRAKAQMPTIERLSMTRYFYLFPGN
Protocol: as §1, §2
Ich-2 (Caspase-4) Colorimetric Dose-Response (IC50) Assay
Inhibition of Ich-2 enzyme is assayed as described above for ICE, except that enzyme is used at 64 nM, and 60 µM of the Ich-2-specific substrate Ac-Leu-Glu-Val-Asp-pNA is used instead of the ICE substrate Ac-Tyr-Val-Ala-Asp-pNA.

Ki [1]	IC50 [2]	IC50 (Ich-2 (Caspase-4))	SMILES
11 µM	73 µM	–	O=C(O)CC(NC(=O)OCc1ccccc1)C(=O)CNS(=O)(=O)CCc1ccccc1 (stereo not shown) [Example 2a, 3-Benzyloxycarbonylamino-4-oxo-5-(2-phenylethane-sulfonylamino)-pentanoic acid]
37 µM	291 µM	–	O=C(O)CC(NC(=O)OCc1ccccc1)C(=O)CNS(=O)(=O)c1ccccc1 (stereo not shown) [Example 2d, 5-Benzenesulfonylamino-3-benzyloxycarbonylamino-4-oxo-pentanoic acid]
735 µM	1830 µM	–	CS(=O)(=O)NCC(=O)C(CC(=O)O)NC(=O)OCc1ccccc1 (stereo not shown) [Example 2e, 3-Benzyloxycarbonylamino-5-methanesulfonylamino-4-oxo-pentanoic acid]
22 µM	174 µM	1010 µM	O=C(O)CC(NC(=O)OCc1ccccc1)C(=O)CNS(=O)(=O)c1cccc2ccccc12 (stereo not shown) [Example 2f, 3-Benzyloxycarbonylamino-5-(naphthalene-1-sulfonylamino)-4-oxo-pentanoic acid]
33 µM	136 µM	314 µM	O=C(O)CC(NC(=O)OCc1ccccc1)C(=O)CNS(=O)(=O)CCC1CCCCC1 (stereo not shown) [Example 2g, 3-Benzyloxycarbonylamino-5-(2-cyclohexyl-ethanesulfonylamino)-4-oxo-pentanoic acid]
16 µM	55.6 µM	199 µM	O=C(O)CC(NC(=O)OCc1ccccc1)C(=O)CNS(=O)(=O)CCc1cccc2ccccc12 (stereo not shown) [Example 2h, 3-Benzyloxycarbonylamino-5-(2-naphthalen-1-yl-ethanesulfonylamino)-4-oxo-pentanoic acid]
30.1 µM	25 µM	59 µM	CC1(C)C2CC[C@]1(CS(=O)(=O)NCC(=O)C(CC(=O)O)NC(=O)OCc1ccccc1)C(=O)C2 (stereo partly drawn) [Example 2i, 3-Benzyloxycarbonylamino-5-(7,7-dimethyl-2-oxo-bicyclo[2.2.1]hept-1-(R)-ylmethanesulfonylamino)-4-oxo-pentanoic acid]
65 µM	194 µM	159 µM	O=C(O)CC(NC(=O)OCc1ccccc1)C(=O)CNS(=O)(=O)CC1CCc2ccccc21 (stereo not shown) [Example 2j, 3-Benzyloxycarbonylamino-5-(indan-1-ylmethanesulfonylamino)-4-oxo-pentanoic acid]
22 µM	–	–	O=C(O)CC(NC(=O)OCc1ccccc1)C(=O)CNS(=O)(=O)CC1(F)c2ccccc2-c2ccccc21 (stereo not shown) [Example 2k, 3-Benzyloxycarbonylamino-5-(9-fluoro-9H-fluoren-9-ylmethanesulfonylamino)-4-oxo-pentanoic acid]
1.4 µM	28 µM	935 µM	CC1(C)C2CCC1(CS(=O)(=O)NCC(=O)C(CC(=O)O)NC(=O)OCc1ccccc1)C(=O)C2 [Example 2l, 3-Benzyloxycarbonylamino-5-(7.7-dimethyl-2-oxo-bicyclo[2.2.1]hept-1-(S)-ylmethanesulfonylamino)-4-oxo-pentanoic acid]
2.8 µM	35.3 µM	–	CC1(C)C2CCC1(CS(=O)(=O)NCC(=O)[C@@H](CC(=O)O)NC(=O)OCc1ccccc1)CC2 [Example 2m, (R)-3-Benzyloxycarbonylamino-5-(7,7-dimethyl-bicyclo[2.2.1]hept-1-ylmethane-sulfonylamino)-4-oxo-pentanoic acid]
0.007 µM	0.072 µM	18 µM	CC(NC(=O)C(NC(=O)OCc1ccccc1)C(C)C)C(=O)NC(CC(=O)O)C(=O)CNS(=O)(=O)CCc1ccccc1 (stereo not shown) [Example 3a, 3-[2-(2-Benzyloxycarbonylamino-3-methyl-butyrylamino)-propionylamino]-4-oxo-5-(2-phenyl-ethanesulfonylamino)-pentanoic acid]
0.013 µM	0.025 µM	4.2 µM	CC(C)C(NC(=O)C(CCC(=O)O)NC(=O)OCc1ccccc1)C(=O)NC(CC(=O)O)C(=O)CNS(=O)(=O)CCc1ccccc1 (stereo not shown) [Example 3b, 3-[2-(2-Benzyloxycarbonylamino-4-carboxy-butyrylamino)-3-methyl-butyrylamino]-4-oxo-5-(2-phenyl-ethanesulfonylamino)-pentanoic acid]
0.0051 µM	0.009 µM	3.4 µM	CC(C)C(NC(=O)C(CCC(=O)O)NC(=O)CCc1ccccc1)C(=O)NC(CC(=O)O)C(=O)CNS(=O)(=O)CCc1ccccc1 (stereo not shown) [Example 3c, 3-{2-[4-Carboxy-2-(3-phenyl-propionylamino)-butyrylamino]-3-methyl-butyrylamino}-4-oxo-5-(2-phenyl-ethanesulfonylamino)-pentanoic acid]
0.0078 µM	0.003 µM	0.9 µM	CC(=O)NC(Cc1ccc(O)cc1)C(=O)NC(CCC(=O)O)C(=O)NC(C(=O)NC(CC(=O)O)C(=O)CNS(=O)(=O)CCc1ccccc1)C(C)C (stereo not shown) [Example 3d]
0.27 µM	7.6 µM	–	CC(=O)NC(C(=O)NC(CC(=O)O)C(=O)CNS(=O)(=O)C[C@]12CCC(CC1=O)C2(C)C)C(C)C (stereo partly drawn) [Example 4a, 3-(2-Acetylamino-3-methyl-butyrylamino)-5-(7,7-dimethyl-2-oxo-bicyclo [2.2.1]hept-1-(S)-ylmethanesulfonylamino)-4-oxo-pentanoic acid]
0.001 µM	0.015 µM	8.5 µM	CC(NC(=O)C(NC(=O)OCc1ccccc1)C(C)C)C(=O)NC(CC(=O)O)C(=O)CNS(=O)(=O)CC12CCC(CC1=O)C2(C)C (stereo not shown) [Example 4c, 3-[2-(2-Benzyloxycarbonylamino-3-methyl-butyrylamino)-propionylamino]-5-(7,7-dimethyl-2-oxo-bicyclo[2.2.1]hept-1-ylmethanesulfonylamino)-4-oxo-pentanoic acid]
0.0016 µM	0.003 µM	1.6 µM	CC(C)C(NC(=O)C(CCC(=O)O)NC(=O)CCc1ccccc1)C(=O)NC(CC(=O)O)C(=O)CNS(=O)(=O)CC12CCC(CC1=O)C2(C)C (stereo not shown) [Example 4d]
0.00011 µM	0.002 µM	0.7 µM	CC(=O)NC(Cc1ccc(O)cc1)C(=O)NC(CCC(=O)O)C(=O)NC(C(=O)NC(CC(=O)O)C(=O)CNS(=O)(=O)CC12CCC(CC1=O)C2(C)C)C(C)C (stereo not shown) [Example 4e, 3-(2-{2-[2-Acetylamino-3-(4-hydroxy-phenyl)-propionylamino]-4-carboxy-butyrylamino}-3-methyl-butyrylamino)-5-(7,7-dimethyl-2-oxo-bicyclo[2.2.1]hept-1-ylmethanesulfonylamino)-4-oxo-pentanoic acid]
105 µM	586 µM	–	O=C(O)C[C@H](NC(=O)CN1CCc2ccccc2C1=O)C(=O)CNS(=O)(=O)c1ccccc1 [Example 5a, 3-(1,2,3,4,-Tetrahydro-1-oxo-isoquinoline-2-yl)acetamino-5-benzenesulfonyl amino-4-oxo-pentanoic acid]
45 µM	371 µM	–	O=C(O)C[C@H](NC(=O)CN1CCc2ccccc2C1=O)C(=O)CNS(=O)(=O)CCc1ccccc1 [Example 5c, (S)-4-Oxo-3-[2-(1-oxo-3,4-dihydro-1H-isoquinolin-2-yl)-acetylamino]-5-(2-phenyl-ethanesulfonylamino)-pentanoic acid]
27 µM	234 µM	–	O=C(O)CC(NC(=O)CN1CCc2ccccc2C1=O)C(=O)CNS(=O)(=O)Cc1ccccc1 (stereo not shown) [Example 5d, 4-Oxo-3-[2-(1-oxo-3,4-dihydro-1H-isoquinolin-2-yl)-acetylamino]-5-phenylmethanesulfonylamino-pentanoic acid]

SMILES	Ki [1]	IC50 [2]	IC50 (Ich-2 (Caspase-4))
O=C(O)CC(NC(=O)OCc1ccccc1)C(=O)CNS(=O)(=O)Cc1ccccc1 (stereo not shown) [Example 2c, 3-Benzyloxycarbonylamino-4-oxo-5-phenylmethanesulfonyl-amino-pentanoic acid]	18 µM and 14 µM	168 µM	–
